Source: patent US9433621B2, “Substituted pyridine and pyrimidine derivatives and their use in treating viral infections” (Merck Sharp & Dohme Corp., priority 2010, dated 2016)

Test system: HCV replicon
Test: Cell-Based HCV Replicon Assay
Conditions: Hepatitis C virus; HCV Replicon assay, EC90 range, Table VI; read-out: EC90
Summary of the method: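 Replicon cells, 5000/well, treated 3 days with 10 serial 2-fold dilutions (top 25 μM to 1 μM) in 0.5% DMSO, 10% FBS. Replicon RNA measured by multiplex Taqman RT-PCR (NS5B amplicon, GAPDH control); EC50/EC90 = concentration giving ΔCT of 1/3.2 over baseline from sigmoid fit.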

Question: For `CO[C@@H]1CCC[C@@H]1Nc1nc(C)c(-c2nc3c(C)nccc3s2)c(N[C@@H]2C[C@H](C(C)(C)Cl)[C@@H](O)[C@H]2O)n1` [Example 5145], which EC90 is on record?
Answer: < 500 nM

Question: How did the EC90 turn out when `CO[C@H]1CCC[C@@H]1Nc1nc(C)c(-c2nc3c(C)nccc3s2)c(N[C@@H]2C[C@H](CO)[C@@H](O)[C@H]2O)n1` [Example 5146] was run?
Answer: < 500 nM

Question: Which EC90 does the source give for `CO[C@H]1CCC[C@@H]1Nc1nc(C)c(-c2nc3c(C4CC4)nccc3s2)c(N[C@@H]2C[C@H](CO)[C@@H](O)[C@H]2O)n1` [Example 5147] here?
Answer: < 500 nM

Question: `Cc1nc(N[C@@H]2CCCC[C@H]2O)nc(N[C@@H]2C[C@H](CO)[C@@H](O)[C@H]2O)c1-c1nc2c(C)nccc2s1` [Example 5148] was tested. Which EC90 did it give?
Answer: < 500 nM

Question: Which EC90 does the source give for `Cc1nc(N[C@H]2CCC[C@H]2O)nc(N[C@@H]2C[C@H](CO)[C@@H](O)[C@H]2O)c1-c1nc2c(C)nccc2s1` [Example 5149] here?
Answer: < 500 nM

Question: Which EC90 does the source give for `Cc1nc(N[C@H]2CCC[C@@H]2O)nc(N[C@@H]2C[C@H](CO)[C@@H](O)[C@H]2O)c1-c1nc2c(C)nccc2s1` [Example 5150] here?
Answer: < 500 nM

Question: Which EC90 does the source give for `Cc1nc(N)nc(N[C@H]2CCC[C@@H]2O)c1-c1nc2c(C)nccc2s1` [Example 5151] here?
Answer: < 500 nM

Question: For `Cc1nc(NC2(C)CCC2)nc(N[C@@H]2C[C@H](CS(C)(=O)=O)[C@@H](O)[C@H]2O)c1-c1nc2c(C)nccc2s1` [Example 5152], which EC90 is on record?
Answer: < 500 nM

Question: With `Cc1nc(NC2(C)CCC2)nc(N[C@@H]2C[C@H](C(C)(C)O)[C@@H](O)[C@H]2O)c1-c1nc2c(C)nccc2s1` [Example 5153] as the compound, how does the EC90 read?
Answer: < 500 nM

Question: `Cc1nc(NCC(F)(F)F)nc(N[C@H]2CCC[C@@H]2O)c1-c1nc2c(C)nccc2s1` [Example 5154] was tested. Which EC90 did it give?
Answer: < 500 nM

Question: With `COCCNc1nc(C)c(-c2nc3c(C)nccc3s2)c(N[C@H]2CCC[C@@H]2O)n1` [Example 5155] as the compound, how does the EC90 read?
Answer: < 500 nM

Question: With `Cc1nc(NCC2CC2)nc(N[C@H]2CCC[C@@H]2O)c1-c1nc2c(C)nccc2s1` [Example 5156] as the compound, how does the EC90 read?
Answer: < 500 nM

Question: For `Cc1nc(NCC2CC2)nc(N[C@H]2C=C[C@@H](CO)C2)c1-c1nc2c(C)nccc2s1` [Example 5157], which EC90 is on record?
Answer: < 500 nM

Question: Which EC90 does the source give for `Cc1nc(NCC2(O)CCCC2)nc(N[C@H]2C=C[C@@H](CO)C2)c1-c1nc2c(C)nccc2s1` [Example 5158] here?
Answer: < 500 nM

Question: How did the EC90 turn out when `Cc1nc(NCC2(O)CCCC2)nc(N[C@H]2CC[C@@H](CO)C2)c1-c1nc2c(C)nccc2s1` [Example 5159] was run?
Answer: < 500 nM

Question: With `Cc1nc(N[C@@H](CO)Cc2ccccc2)nc(N[C@@H]2C[C@H](C(C)(C)O)[C@@H](O)[C@H]2O)c1-c1nc2c(C)nccc2s1` [Example 5160] as the compound, how does the EC90 read?
Answer: 500 to 5000 nM

Question: Which EC90 does the source give for `COCCCNc1nc(C)c(-c2nc3c(C)nccc3s2)c(N[C@@H]2C[C@H](C(C)(C)O)[C@@H](O)[C@H]2O)n1` [Example 5161] here?
Answer: < 500 nM

Question: How did the EC90 turn out when `Cc1nc(N[C@@H](CO)CC(C)C)nc(N[C@@H]2C[C@H](C(C)(C)O)[C@@H](O)[C@H]2O)c1-c1nc2c(C)nccc2s1` [Example 5162] was run?
Answer: < 500 nM

Question: `Cc1nc(NC(C)CCCC(C)(C)O)nc(N[C@@H]2C[C@H](C(C)(C)O)[C@@H](O)[C@H]2O)c1-c1nc2c(C)nccc2s1` (some centres unmarked) [Example 5163] was tested. Which EC90 did it give?
Answer: < 500 nM

Question: Which EC90 does the source give for `Cc1nc(NCC(F)(F)C(F)(F)C(F)(F)F)nc(N[C@H]2C=C[C@@H](CO)C2)c1-c1nc2c(C)nccc2s1` [Example 5164] here?
Answer: < 500 nM

Question: `Cc1nc(NCC(F)(F)C(F)(F)F)nc(N[C@H]2C=C[C@@H](CO)C2)c1-c1nc2c(C)nccc2s1` [Example 5165] was tested. Which EC90 did it give?
Answer: < 500 nM

Question: For `Cc1nc(NCC(F)(F)C(F)(F)C(F)(F)F)nc(N[C@H]2CC[C@@H](CO)C2)c1-c1nc2c(C)nccc2s1` [Example 5166], which EC90 is on record?
Answer: < 500 nM

Question: How did the EC90 turn out when `Cc1nc(N)nc(N[C@H]2C=C[C@@H](CO)C2)c1-c1nc2c(C)nccc2s1` [Example 5167] was run?
Answer: < 500 nM

Question: `Cc1nc(NCC(F)(F)C(F)(F)F)nc(N[C@H]2CC[C@@H](CO)C2)c1-c1nc2c(C)nccc2s1` [Example 5168] was tested. Which EC90 did it give?
Answer: < 500 nM

Question: `Cc1nc(N[C@H](C)c2c(F)c(F)c(C)c(F)c2F)nc(N[C@H]2C=C[C@@H](CO)C2)c1-c1nc2c(C)nccc2s1` [Example 5169] was tested. Which EC90 did it give?
Answer: < 500 nM

Question: For `Cc1nc(NCC2(O)CC2)nc(N[C@H]2C=C[C@@H](CO)C2)c1-c1nc2c(C)nccc2s1` [Example 5170], which EC90 is on record?
Answer: < 500 nM
